Assay results from PMC12079475, “Identification, validation, and characterization of approved and investigational drugs interfering with the SARS‐CoV‐2 endoribonuclease Nsp15” (Protein Science : A Publication of the Protein Society, 2025).
pEC50, pIC50: −log10 of the molar value. Read-outs that look alike come from different tables or passages of the source.

Legend:
SARS‐CoV Nsp15 = conditions: previously reported; ref Ortiz‐Alcantara et al., 2010; read-out: inhibition potency of SARS‐CoV Nsp15; cited from earlier work
SARS‐CoV‐2 Nsp15 [1] = target: T1, SARS‐CoV‐2 Nsp15 (Severe acute respiratory syndrome coronavirus 2, UniProt P0DTD1); test: biochemical; conditions: for IC50: confidence interval in brackets, read-out: IC50 + DTT (μM) (CI in μM)
[2] = Readout interference test: compound added after the enzymatic reaction ran to completion; conditions: normalized to the DMSO control; compound added after 1 h Nsp15/substrate reaction
Nsp15 [3] = target: T2, Nsp15 (Severe acute respiratory syndrome coronavirus 2, UniProt P0DTD1)
SARS‐CoV‐2 Nsp15 [4] = target: T1, SARS‐CoV‐2 Nsp15; test: biochemical; format: biochemical; conditions: for Inhibition % +L-Cys 10 µM / inhibition at 10 µM: L-cysteine buffer; for IC50: 1 mM L-cysteine buffer, confidence interval in brackets, read-out: IC50 + L‐Cys (μM) (CI in μM); for inhibition at 10 µM: read-out: Inhibition % +L-Cys 10 µM; for loss of the inhibition potency in L‐cysteine buffer: 1 mM L‐cysteine buffer compared with DTT buffer
Nsp15 [5] = target: T2, Nsp15; conditions: measured particle size
[6] = tested on: SARS‐CoV‐2 in Vero‐E6 cells; design: method as in Zaliani et al., 2022; conditions: ref Zaliani et al., 2022, read-out: EC50 cytopathic (CPE) assay; cited from earlier work
Vero‐E6 cells = conditions: cited from earlier work
[7] = design: method as in Zhao et al., 2021; conditions: ref Zhao et al., 2021; cited from earlier work
[8] = DTT buffer, 30 min pre-incubation, read-out: IC50
[9] = DTT buffer (Table S1), read-out: IC50 +DTT
[10] = hit confirmation, 10 µM, DTT buffer
[11] = primary screen, 10 µM (Table S1)
[12] = primary screen, 10 μM compound, 1 mM DTT buffer, normalized to 50 μM Congo red (100%) and DMSO (0%)
[13] = L-cysteine buffer (Table S1), read-out: IC50 +L-Cys
[14] = hit confirmation, 10 µM, DTT buffer, read-out: HC inhibition % +DTT 10 µM
[15] = primary screen, 10 µM (Table S1), read-out: PS Inhibition % 10 µM
[16] = primary screen, 10 μM compound, 1 mM DTT buffer, normalized to 50 μM Congo red (100%) and DMSO (0%), read-out: PS inhibition % 10 μM (single point measurement)

| Compound | ΔT m°C nDSF (Nsp15 [3]) [°C] | IC50 (SARS‐CoV‐2 Nsp15 [1]; 1 mM DTT buffer) [µM] | pIC50 (SARS‐CoV‐2 Nsp15 [1]; [9]) | IC50 (SARS‐CoV‐2 Nsp15 [4]) [µM] | inhibition at 10 µM (SARS‐CoV‐2 Nsp15 [1]; [14]) [%] | inhibition at 10 µM (SARS‐CoV‐2 Nsp15 [1]; [15]) [%] | inhibition at 10 µM (SARS‐CoV‐2 Nsp15 [1]; [16]) [%] | inhibition at 10 µM (SARS‐CoV‐2 Nsp15 [4]) [%] | further results |
| --- | --- | --- | --- | --- | --- | --- | --- | --- | --- |
| Nc1c(/N=N/c2ccc(-c3ccc(/N=N/c4cc(S(=O)(=O)O)c5ccccc5c4N)cc3)cc2)cc(S(=O)(=O)O)c2ccccc12 [Congo red] |  |  |  |  |  |  |  |  | pIC50 (SARS‐CoV Nsp15): 5.60; pIC50 (SARS‐CoV‐2 Nsp15 [1]; [8]): 5.12 |
| CC[n+]1c(-c2ccccc2)c2cc(N)ccc2c2ccc(N)cc21 [Homidium bromide] |  |  |  |  |  |  |  |  | quenching ratio of the fluorescence signal [2]: 26.13% |
| CN[C@H](CC(C)C)C(=O)N[C@H]1C(=O)N[C@@H](CC(N)=O)C(=O)N[C@H]2C(=O)N[C@H]3C(=O)N[C@H](C(=O)N[C@H](C(=O)O)c4cc(O)cc(O)c4-c4cc3ccc4O)[C@H](O[C@H]3C[C@](C)(N)[C@@H](O)[C@H](C)O3)c3ccc(c(Cl)c3)Oc3cc2cc(c3O[C@@H]2O[C@H](CO)[C@@H](O)[C@H](O)[C@H]2O[C@H]2C[C@](C)(NCc3ccc(-c4ccc(Cl)cc4)cc3)[C@@H](O)[C@H](C)O2)Oc2ccc(cc2Cl)[C@H]1O.O=P(O)(O)O.O=P(O)(O)O [Oritavancin (diphosphate)] | 0 | 2.5 | 5.60 | 1.2 |  |  |  |  | HC inhibition % +DTT 10 µM (SARS‐CoV‐2 Nsp15 [1]; [10]): 92,52%; PS Inhibition % 10 µM (SARS‐CoV‐2 Nsp15 [1]; [11]): 86,71%; PS inhibition % 10 μM (single point measurement) (SARS‐CoV‐2 Nsp15 [1]; [12]): 86.7%; Inhibition % +L-Cys 10 µM (SARS‐CoV‐2 Nsp15 [4]): 91,07%; pIC50 (SARS‐CoV‐2 Nsp15 [4]; [13]): 5.91 |
| CC[N+](C)(CC)CCC[n+]1c(-c2ccccc2)c2cc(N)ccc2c2ccc(N)cc21.[I-].[I-] [Propidium‐iodide] | 0.7 | 0.9 | 6.02 | 9 |  |  |  |  | HC inhibition % +DTT 10 µM (SARS‐CoV‐2 Nsp15 [1]; [10]): 85,94%; PS Inhibition % 10 µM (SARS‐CoV‐2 Nsp15 [1]; [11]): 83,07%; PS inhibition % 10 μM (single point measurement) (SARS‐CoV‐2 Nsp15 [1]; [12]): 83.1%; Inhibition % +L-Cys 10 µM (SARS‐CoV‐2 Nsp15 [4]): 68,98%; effect on the hexameric Nsp15 structure (DLS) (Nsp15 [5]): significantly affected the hexameric Nsp15 structure |
| CN(C)CCNc1nc2cc(O)ccc2c2c1C(=O)c1ccccc1-2.Cl.Cl [TAS‐103 (dihydrochloride), 6‐[2‐(dimethylamino)ethylamino]‐ 3‐hydroxy‐7H‐indeno[2,1‐C]quinolin‐7‐one dihydrochloride] | 0.6 | 6.6 | 5.18 |  | 63.6 | 63.4 | 63.4 | -33.9 | loss of the inhibition potency in L‐cysteine buffer (SARS‐CoV‐2 Nsp15 [4]): more than 50% |
| COc1cc2c(NC3CCN(C(C)C)CC3)nc(N3CCC(F)(F)CC3)nc2cc1OCCCN1CCCC1 [UNC0642] |  | 6.3 | 5.20 | 3.3 | 77.5 | 56.9 | 56.9 | 80.2 | pEC50 [6]: 4.78; CC50 (Vero‐E6 cells; tested concentration range up to 32 μM, ref Zaliani et al., 2022): > 32 µM; pIC50 (SARS‐CoV‐2 Nsp15 [4]; [13]): 5.49 |
| COc1cc2c(NC3CCN(C4CCCCC4)CC3)nc(N3CCCN(C(C)C)CC3)nc2cc1OCCCN1CCCCC1 [UNC0646] | 0 | 1.4 |  | 0.7 | 83.2 | 75.3 | 75.3 | 91.3 | pEC50 [6]: 4.45; pIC50 (SARS‐CoV‐2 Nsp15 [1]; [8]): 5.87; CC50 (Vero‐E6 cells): 18.6 µM; pIC50 (SARS‐CoV‐2 Nsp15 [4]; L‐cysteine buffer, read-out: IC50): 6.14 |
| COCCn1c2c([n+](Cc3cnccn3)c1C)C(=O)c1ccccc1C2=O [YM‐155] | 0.1 | 1.2 | 5.91 |  | 79.7 | 74 | 74 | 12.4 | cytotoxicity in cell‐based assays [7]: no cytotoxicity at tested concentrations; loss of the inhibition potency in L‐cysteine buffer (SARS‐CoV‐2 Nsp15 [4]): more than 50% |
